Test results as given in ChEMBL document CHEMBL4699584, “Bioassay-Directed Isolation of Antibacterial Metabolites from an Arthropod-Derived Penicillium chrysogenum” (2020).

What was measured:
Type in all cases: functional
Staphylococcus aureus = test: Antibacterial activity against methicillin-resistant Staphylococcus aureus assessed as reduction in microbial growth by broth microdilution method
Escherichia coli = test: Antibacterial activity against ESBL producing Escherichia coli assessed as reduction in microbial growth by broth microdilution method
Enterococcus faecalis = test: Antibacterial activity against Enterococcus faecalis assessed as reduction in microbial growth by broth microdilution method

C[C@H]1[C@@H]2O[C@@H]2C(=O)[C@]2(C)CC[C@H]3[C@H]4[C@](C)(CC[C@]4(C)C(=O)O)C[C@]132
MIC (Staphylococcus aureus): 4 µg/mL | MIC (Escherichia coli): 32 µg/mL | MIC (Enterococcus faecalis): 32 µg/mL

C[C@H]1C=CC(=O)[C@]2(C)CC[C@H]3[C@@H]4C(CO)(CO)CC[C@]4(C)C[C@]132
MIC (Staphylococcus aureus): 2 µg/mL | MIC (Escherichia coli): 32 µg/mL | MIC (Enterococcus faecalis): 32 µg/mL
